Biological target: GBSSrtC1 (SAG2603 V/R sortase C1) (Streptococcus agalactiae, UniProt Q8E0S7)
Experiment: NMR
Format: binding
Conditions: irreversible cysteine protease inhibitor; in solution

`CC(C)C[C@H](NC(=O)[C@H]1O[C@@H]1C(=O)O)C(=O)NCCCCN=C(N)N` [E64] was tested, and the “NMR (results not shown)” value was “inhibitors MTSET and E64 in solution was confirmed by mass spectrometry and NMR, respectively”.
